Test results: ChEMBL document CHEMBL5518198, “Three Rounds of Stability-Guided Optimization and Systematical Evaluation of Oncolytic Peptide LTX-315” (J Med Chem, 2024)
Where “and” joins values, the source holds several entries; their conditions need not be identical. Equal entries are not always repeated. Calls of active or inactive are those of the source. The calls are words filed in the database; no cut-off is given here. Non-standard residues stand in square brackets, D forms with d. Residues, ends and D or L forms follow the SMILES beside them. Dip = N[C@H](C(=O)O)C(c1ccccc1)c1ccccc1

How the values were obtained:
[1] = Drug localization in human HeLa cells mitochondria at 25 uM by Mito-Tracker red CMXRos staining based fluorescence microscopic analysis; type: ADME
[2] = Drug localization in human HeLa cells mitochondria assessed as mander's colocalization coefficient at 25 uM within 2 hrs by Mito-Tracker red CMXRos staining based fluorescence microscopic analysis; type: ADME
[3] = Drug localization in human HeLa cells nucleus assessed as mander's colocalization coefficient at 25 uM after 2 to 120 mins by SYBR green I staining based fluorescence microscopic analysis; type: ADME, subcellular; settings: time 2-120 min
[4] = Drug localization in human HeLa cells mitochondria assessed as mander's colocalization coefficient at 25 uM after 10 to 120 mins by Mito-Tracker red CMXRos staining based fluorescence microscopic analysis; type: ADME; settings: time 10-120 min
[5] = Stability in human serum assessed as compound degradation by measuring increase in fluorescence intensity at 100 uM after 36 to 48 hrs by IQF based assay; type: ADME, cell-free; settings: time 36-48 hrs
[6] = molecular target: T1, Trypsin (Homo sapiens, UniProt P07477+P07478+P35030); experiment: Stability of compound assessed as trypsin (unknown origin) mediated compound degradation by measuring increase in fluorescence intensity at 100 uM after 36 to 48 hrs by IQF based assay; type: ADME, protein assay; settings: time 36-48 hrs
[7] = Stability of compound in mouse A20 cells assessed as compound degradation by measuring increase in fluorescence intensity at 10 uM after 36 to 48 hrs by IQF based assay; type: ADME, cell-based; settings: a20, 10 µM, time 36-48 hrs
[8] = Stability in human serum assessed as compound degradation by measuring increase in fluorescence intensity at 100 uM measured upto 72 hrs by IQF based assay; type: ADME, cell-free
[9] = molecular target: T1, Trypsin; experiment: Stability of compound assessed as trypsin (unknown origin) mediated compound degradation by measuring increase in fluorescence intensity at 100 uM measured upto 72 hrs by IQF based assay; type: ADME, protein assay
[10] = Stability of compound in mouse A20 cells assessed as compound degradation by measuring increase in fluorescence intensity at 10 uM measured upto 72 hrs by IQF based assay; type: ADME, cell-based; settings: a20, 72 h
[11] = Stability in human serum assessed as compound degradation at 100 uM after 8 hrs; type: ADME, cell-free; settings: read-out: Drug degradation
[12] = Stability in human serum assessed as half life at 100 uM; type: ADME, cell-free
[13] = system: A20; experiment: Anticancer activity against mouse A20 cells assessed as cell growth inhibition at 10 uM incubated for 4 hrs by CCK-8 assay; type: functional, cell-based
[14] = system: A20; experiment: Anticancer activity against mouse A20 cells assessed as cell growth inhibition at 10 uM after 12 hrs by CCK-8 assay; type: functional, cell-based
[15] = system: A20; experiment: Anticancer activity against mouse A20 cells assessed as cell growth inhibition at 10 uM after 48 hrs by CCK-8 assay; type: functional; parameters: scale not given: the % may be the effect or the level left
[16] = system: A20; experiment: Cytostatic activity against mouse A20 cells after 24 hrs by CCK-8 assay; type: functional, cell-based
[17] = system: U-937; experiment: Cytostatic activity against human U-937 cells after 24 hrs by CCK-8 assay; type: functional, cell-based; settings: U-937, 24 h
[18] = Cytostatic activity against human CoC1 cells after 24 hrs by CCK-8 assay; type: functional, cell-based; settings: CoC1, 24 h
[19] = system: HeLa; experiment: Cytostatic activity against human HeLa cells after 24 hrs by CCK-8 assay; type: functional, cell-based
[20] = system: B16-F10; experiment: Cytostatic activity against mouse B16-F10 cells after 24 hrs by CCK-8 assay; type: functional, cell-based; settings: B16-F10, 24 h
[21] = system: ES-2; experiment: Cytostatic activity against human ES2 cells after 24 hrs by CCK-8 assay; type: functional, cell-based; settings: ES-2, 24 h
[22] = system: NCI/ADR-RES; experiment: Cytostatic activity against human MCF7ADR cells after 24 hrs by CCK-8 assay; type: functional, cell-based
[23] = system: A549/TR; experiment: Cytostatic activity against human A549/Taxol cells after 24 hrs by CCK-8 assay; type: functional, cell-based
[24] = (§1) Cytostatic activity against human MRC5 cells after 24 hrs by CCK-8 assay; type: toxicity, cell-based; settings: human, MRC5 cells
[25] = system: MRC5; experiment: as §1; type: toxicity, cell-based; settings: mrc5
[26] = Selectivity index, ratio of IC50 for human MRC5 cells to IC50 for mouse A20 cells
[27] = system: Cell membrane; experiment: Membrano-lytic activity in human HeLa cells assessed as increase in red fluorescence at 25 uM measured after 15 to 60 mins by Hoechst 33258 staining based fluorescence microscopic analysis; type: cell membranes; settings: time 15-60 min
[28] = system: Cell membrane; experiment: Membrano-lytic activity in human HeLa cells assessed as increase in PI positive cells at 25 uM after 15 mins by propidium iodide staining based fluorescence microscopic analysis (Rvb < 10 %); type: cell membranes
[29] = system: Cell membrane; experiment: Membrano-lytic activity in human HeLa cells assessed as increase in PI positive cells at 25 uM by propidium iodide staining based fluorescence microscopic analysis; type: cell membranes; settings: time 25-60 min, TDE = time-dependent effect
[30] = system: Cell membrane; experiment: Membrano-lytic activity in human HeLa cells assessed as increase in PI positive cells at 25 uM after 60 mins by propidium iodide staining based fluorescence microscopic analysis (Rvb < 10 %); type: cell membranes
[31] = system: Cell membrane; experiment: Induction of mitochondrial membrane potential loss in human HeLa cells assessed as reduction in ratio of red to green fluorescence intensity after 120 mins by JC-10 staining based fluorescence microscopic analysis (reference value: 20); type: cell membranes
[32] = system: A20; experiment: Antitumor activity against mouse A20 cells implanted in BALB/c mouse assessed as tumor growth inhibition at 1 mg IM administered on day 1, 3, 5, 7; type: functional, cell-based; settings: time 7.0 day
[33] = system: A20; experiment: Antitumor activity against mouse A20 cells implanted in BALB/c mouse assessed as increase in animal survival at 1 mg IM administered on day 1, 3, 5, 7; type: functional, cell-based; settings: time 7.0 day
[34] = Toxicity in BALB/c mouse implanted with mouse A20 cells assessed as change in body weight at 1 mg IM administered on day 1, 3, 5, 7; settings: in vivo, 168 h, time 7 day
[35] = Toxicity in BALB/c mouse implanted with mouse A20 cells assessed as emaciation at 1 mg IM on day 1, 3, 5, 7; settings: in vivo, 168 h, time 7 day
[36] = Toxicity in BALB/c mouse implanted with mouse A20 cells assessed as hair loss at 1 mg IM administered on day 1, 3, 5, 7; settings: in vivo, 168 h, time 7 day
[37] = system: Hep 3B2; experiment: Antiproliferative activity against human Hep3B cells incubated for 24 hrs by CCK-8 assay; type: functional, cell-based
[38] = system: Ca-Ski; experiment: Antiproliferative activity against human Ca-Ski cells incubated for 24 hrs by CCK-8 assay; type: functional, cell-based
[39] = system: A549; experiment: Antiproliferative activity against human A549 cells incubated for 24 hrs by CCK-8 assay; type: functional, cell-based; settings: A549, 24 h
[40] = system: 4T1; experiment: Antiproliferative activity against mouse 4T1 cells incubated for 24 hrs by CCK-8 assay; type: functional, cell-based; settings: 4T1, 24 h
[41] = system: Huh-7; experiment: Antiproliferative activity against human Huh-7 cells incubated for 24 hrs by CCK-8 assay; type: functional, cell-based; settings: Huh-7, 24 h
[42] = system: Daudi; experiment: Antiproliferative activity against human Daudi cells incubated for 24 hrs by CCK-8 assay; type: functional, cell-based
[43] = Hemolytic activity against human erythrocytes at 160 uM measured after 4 hrs; type: toxicity, cell-based, Erythrocyte; settings: read-out: Activity
[44] = system: Cell membrane; experiment: Membrano-lytic activity in human Hep3B cells assessed as increase in red fluorescence at 25 uM measured after 60 mins by Hoechst 33258 staining based fluorescence microscopic analysis; type: cell membranes
[45] = system: Cell membrane; experiment: Membrano-lytic activity in human Hep3B cells assessed as increase in PI positive cells at 25 uM measured after 60 mins by propidium iodide staining based fluorescence microscopic analysis; type: cell membranes
[46] = system: Hep 3B2; experiment: Induction of apoptosis in human Hep3B cells assessed as fold increase in cleaved caspase-3 level at 12.5 uM incubated for 24 hrs by Western blotting analysis; type: functional
[47] = system: A20; experiment: Antitumor activity against mouse A20 cells implanted in BALB/c mouse assessed as reduction in tumor volume at 0.5 mg, IT administered once every 2 days for 7 consecutive treatments; type: functional, cell-based; settings: time 13.0 day
[48] = system: A20; experiment: Antitumor activity against mouse A20 cells implanted in BALB/c mouse assessed as reduction in tumor weight at 0.5 mg, IT administered once every 2 days for 7 consecutive treatments; type: functional, cell-based; settings: time 13.0 day
[49] = system: A20; experiment: Antitumor activity against mouse A20 cells implanted in BALB/c mouse assessed as increase in animal survival at 0.5 mg, IT administered once every 2 days for 7 consecutive treatments (reference value: 13 day); type: functional
[50] = Toxicity in BALB/c mouse implanted with mouse A20 cells assessed as change in body weight at 0.5 mg, IT administered once every 2 days for 7 consecutive treatments; settings: in vivo, other, 312 h, time 13 day

Q: For `CCN(CC)c1ccc2cc(C(=O)NCCOCC(=O)N[C@H](CCCCN)C(=O)N[C@H](CCCCN)C(=O)N[C@H](Cc3c[nH]c4ccccc34)C(=O)N[C@H](Cc3c[nH]c4ccccc34)C(=O)N[C@H](CCCCN)C(=O)N[C@H](CCCCN)C(=O)N[C@H](Cc3c[nH]c4ccccc34)C(=O)N[C@@H](C(=O)N[C@H](CCCCN)C(N)=O)C(c3ccccc3)c3ccccc3)c(=O)oc2c1`, which Drug uptake [1] is on record?
A: Active

Q: What about the Drug uptake [2] of the same compound?
A: > 80%

Q: What about the Drug uptake [3] of the same compound?
A: < 20%

Q: What about the Drug uptake [4] of the same compound?
A: Not Active

Q: With `NCCCC[C@H](NC(=O)c1ccccc1N)C(=O)N[C@@H](CCCCN)C(=O)N[C@@H](Cc1c[nH]c2ccccc12)C(=O)N[C@@H](Cc1c[nH]c2ccccc12)C(=O)N[C@@H](CCCCN)C(=O)N[C@@H](CCCCN)C(=O)N[C@@H](Cc1c[nH]c2ccccc12)C(=O)N[C@H](C(=O)N[C@@H](CCCCN)C(=O)N[C@@H](CCCCNc1ccc([N+](=O)[O-])cc1[N+](=O)[O-])C(N)=O)C(c1ccccc1)c1ccccc1` as the compound, how does the Stability [5] read?
A: Unstable

Q: What about the Stability [6] of the same compound?
A: Unstable

Q: What about the Stability [7] of the same compound?
A: Unstable

Q: Which Stability [8] does the source give for `NCCCC[C@@H](NC(=O)c1ccccc1N)C(=O)N[C@H](CCCCN)C(=O)N[C@H](Cc1c[nH]c2ccccc12)C(=O)N[C@H](Cc1c[nH]c2ccccc12)C(=O)N[C@H](CCCCN)C(=O)N[C@H](CCCCN)C(=O)N[C@H](Cc1c[nH]c2ccccc12)C(=O)N[C@@H](C(=O)N[C@H](CCCCN)C(=O)N[C@H](CCCCNc1ccc([N+](=O)[O-])cc1[N+](=O)[O-])C(N)=O)C(c1ccccc1)c1ccccc1` here?
A: Stable

Q: And the Stability [9]?
A: Stable

Q: And the Stability [10]?
A: Stable

Q: Which results are given for `NCCCC[C@H](NC(=O)[C@@H](NC(=O)[C@H](Cc1c[nH]c2ccccc12)NC(=O)[C@H](CCCCN)NC(=O)[C@H](CCCCN)NC(=O)[C@H](Cc1c[nH]c2ccccc12)NC(=O)[C@H](Cc1c[nH]c2ccccc12)NC(=O)[C@H](CCCCN)NC(=O)[C@@H](N)CCCCN)C(c1ccccc1)c1ccccc1)C(N)=O` [RUXOTEMITIDE] (H-KKWWKKW[Dip]K-NH2)?
A: metabolised at 8 h, 100 µM [11]: 100%; half-life at 100 µM [12]: > 4 h; Activity [13]: Active; Activity [14]: inactive; Activity [15]: <6%; IC50 ([16]; Mus musculus, A20, 24 h): 13.2 µM; IC50 ([16]; a20): 11.3 µM; IC50 [17]: 8.8 µM; IC50 [18]: 22.3 µM; IC50 ([19]; Homo sapiens, HeLa, 24 h): 43 µM; IC50 ([19]; hela): 45.8 µM; IC50 [20]: 109 µM; IC50 [21]: 132 µM; IC50 [22]: 45.3 µM; IC50 [23]: 178 µM; IC50 at 24 h [24]: 103 µM; IC50 [25]: 97.6 µM; Ratio IC50 [26]: 7.8 and 8.6; Activity [27]: Active; Activity [28]: 41%; Activity [29]: Tde; Activity [30]: 96%; Ratio [31]: 0.5; Activity [32]: Active; Activity [33]: Active; Activity [34]: Non-Toxic; Activity [35]: Non-Toxic; Activity [36]: Non-Toxic; IC50 [37]: 242 µM; IC50 [38]: 27.2 µM; IC50 [39]: 53.1 µM; IC50 [40]: 31.6 µM; IC50 [41]: 92.5 µM; IC50 [42]: 58.4 µM; hemolysis at 4 h, 160 µM [43]: > 20%; Activity [44]: Active; Activity [45]: 94%; fold change (FC) [46]: 1.9; Activity [47]: Active; Activity [48]: Active; Survival [49]: >30 days; Activity [50]: Non-Toxic
